pIC50: −log10 of the molar value.
biological target: PAFR (Homo sapiens, UniProt P25105); experiment: PAF Binding Assay (PAFR binding)
Sequence (P25105 whole entry): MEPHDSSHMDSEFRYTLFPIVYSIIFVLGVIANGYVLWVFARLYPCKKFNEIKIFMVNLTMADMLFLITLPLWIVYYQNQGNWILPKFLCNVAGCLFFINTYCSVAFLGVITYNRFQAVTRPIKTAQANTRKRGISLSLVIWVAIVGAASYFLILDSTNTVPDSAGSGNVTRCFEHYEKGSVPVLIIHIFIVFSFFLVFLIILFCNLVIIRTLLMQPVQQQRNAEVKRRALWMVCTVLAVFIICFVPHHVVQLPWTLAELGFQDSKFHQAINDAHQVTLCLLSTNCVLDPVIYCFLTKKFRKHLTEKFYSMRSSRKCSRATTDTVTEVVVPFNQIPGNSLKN

Row | pIC50 | SMILES
1 | 8.62 | O=S(=O)(N[C@H]1CCC[C@@H](n2cnnc2)C1)c1c(C2CC2)cc(-c2noc(C3CC3)n2)cc1C1CC1 [Compound 2Ra, 2,6-dicyclopropyl-4-(5-cyclopropyl-1,2,4-oxadiazol-3-yl)-N-[(1S,3R)-3-(4H-1,2,4-triazol-4-yl)cyclohexyl]benzenesulfonamide]
2 | 8.01 | Cc1nnc(C)n1[C@@H]1CCC[C@H](NS(=O)(=O)c2c(C(C)C)cc(C(C)C)cc2C(C)C)C1 [Compound 7d, N-[(1S,3R)-3-(3,5-dimethyl-4H-1,2,4-triazol-4-yl)cyclohexyl]-2,4,6-triisopropylbenzenesulfonamide]
3 | 8.74 | CCc1cc(-c2cccc3cccnc23)cc(S(=O)(=O)N[C@@H]2C[C@H](n3cnnc3C)CC(F)(F)C2)c1 [Compound 3Da, N-[(1R,5S)-3,3-difluoro-5-(3-methyl-4H-1,2,4-triazol-4-yl)cyclohexyl]-3-ethyl-5-quinolin-8-ylbenzenesulfonamide]
4 | 7.70 | O=S(=O)(N[C@H]1CCC[C@@H](n2cnnc2)C1)c1cc(-c2cncc(F)c2)cc(C(F)(F)F)c1 [Compound 3Aac, 3-(5-fluoropyridin-3-yl)-N-[(1S,3R)-3-(4H-1,2,4-triazol-4-yl)cyclohexyl]-5-(trifluoromethyl)benzenesulfonamide]
5 | 8.44 | O=S(=O)(N[C@H]1CCC[C@@H](n2cnnc2)C1)c1cc(-c2ccn3nccc3n2)cc(C(F)(F)F)c1 [Compound 3Aak, 3-pyrazolo[1,5-a]pyrimidin-5-yl-N-[(1S,3R)-3-(4H-1,2,4-triazol-4-yl)cyclohexyl]-5-(trifluoromethyl)benzenesulfonamide]
6 | 8.51 | O=S(=O)(N[C@H]1CCC[C@@H](n2cnnc2)C1)c1cc(-c2cccn3cnnc23)cc(C(F)(F)F)c1 [Compound 3d]
7 | 7.15 | CCc1cc(-c2cncc(OC)c2)ccc1S(=O)(=O)N[C@H]1CCC[C@@H](n2cnnc2)C1 [Compound 2Aan, 2-ethyl-4-(5-methoxypyridin-3-yl)-N-[(1S,3R)-3-(4H-1,2,4-triazol-4-yl)cyclohexyl]benzenesulfonamide]
8 | 6.68 | CCc1cc(-c2ccnnc2)cc(S(=O)(=O)N[C@H]2CCC[C@@H](n3cnnc3)C2)c1 [Compound 3Baz, 3-ethyl-5-pyridazin-4-yl-N-[(1S,3R)-3-(4H-1,2,4-triazol-4-yl)cyclohexyl]benzenesulfonamide]
9 | 8.70 | CCc1cc(-c2noc(C3CC3)n2)ccc1S(=O)(=O)N[C@H]1CCC[C@@H](n2cnnc2C)C1 [Compound 2Abb, 4-(5-cyclopropyl-1,2,4-oxadiazol-3-yl)-2-ethyl-N-[(1S,3R)-3-(3-methyl-4H-1,2,4-triazol-4-yl)cyclohexyl]benzenesulfonamide]
10 | 7.82 | O=S(=O)(N[C@H]1CCC[C@@H](n2cnnc2)C1)c1ccc(-c2ccc(OC(F)(F)F)cc2)cc1OC(F)(F)F [Compound 2Bal, N-[(1S,3R)-3-(4H-1,2,4-triazol-4-yl)cyclohexyl]-3,4′-bis(trifluoromethoxy)biphenyl-4-sulfonamide]
11 | 8.00 | CC(F)(F)c1nc(-c2ccc(S(=O)(=O)N[C@H]3CCC[C@@H](n4cnnc4)C3)c(C3CC3)c2)no1 [Compound 2Kc, 2-cyclopropyl-4-[5-(1,1-difluoroethyl)-1,2,4-oxadiazol-3-yl]-N-[(1S,3R)-3-(4H-1,2,4-triazol-4-yl)cyclohexyl]benzenesulfonamide]
12 | 7.08 | CCc1cc(-c2ccc(C(F)(F)F)cc2C(F)(F)F)ccc1S(=O)(=O)N[C@H]1CCC[C@@H](n2cnnc2)C1 [Compound 2Abm, 3-ethyl-N-[(1S,3R)-3-(4H-1,2,4-triazol-4-yl)cyclohexyl]-2′,4′-bis(trifluoromethyl)biphenyl-4-sulfonamide]
13 | 8.57 | O=S(=O)(N[C@H]1CCC[C@@H](n2cnnc2)C1)c1ccc(-c2noc(C3CC3)n2)cc1C1CC1 [Compound 2Ka, 2-cyclopropyl-4-(5-cyclopropyl-1,2,4-oxadiazol-3-yl)-N-[(1S,3R)-3-(4H-1,2,4-triazol-4-yl)cyclohexyl]benzenesulfonamide]
14 | 8.24 | O=S(=O)(N[C@H]1CCC[C@@H](n2cnnc2)C1)c1ccc(-c2ccc(OC(F)(F)F)cc2)c(F)c1 [Compound 2Ea, 2-fluoro-N-[(1S,3R)-3-(4H-1,2,4-triazol-4-yl)cyclohexyl]-4′-(trifluoromethoxy)biphenyl-4-sulfonamide]
15 | 8.00 | O=S(=O)(N[C@@H]1C[C@H](n2cnnc2)CC(F)(F)C1)c1ccc(-c2ccc(OC(F)(F)F)cc2)c(F)c1 [Compound 2Ga, N-[(1R,5S)-3,3-difluoro-5-(4H-1,2,4-triazol-4-yl)cyclohexyl]-2-fluoro-4′-(trifluoromethoxy)biphenyl-4-sulfonamide]
16 | 6.79 | O=S(=O)(N[C@H]1CCC[C@@H](n2cnnc2)C1)c1ccc(OC(F)(F)F)cc1 [Compound 2Mu, N-[(1S,3R)-3-(4H-1,2,4-triazol-4-yl)cyclohexyl]-4-(trifluoromethoxy)benzenesulfonamide]
17 | 9.10 | CCc1cc(-c2ccc(OC(C)C)cc2)ccc1S(=O)(=O)N[C@H]1CCC[C@@H](n2cnnc2)C1 [Compound 2Aaj, 3-ethyl-4′-isopropoxy-N-[(1S,3R)-3-(4H-1,2,4-triazol-4-yl)cyclohexyl]biphenyl-4-sulfonamide]
18 | 6.80 | CC(C)(C)c1cccc(S(=O)(=O)N[C@H]2CCC[C@@H](n3cnnc3)C2)c1 [Compound 2Mf, 3-tert-butyl-N-[(1S,3R)-3-(4H-1,2,4-triazol-4-yl)cyclohexyl]benzenesulfonamide]
19 | 7.57 | O=S(=O)(N[C@H]1CCC[C@@H](n2cnnc2)C1)c1cc(-c2ccc3nc(C(F)(F)F)cn3n2)cc(C(F)(F)F)c1 [Compound 3Aaj, N-[(1S,3R)-3-(4H-1,2,4-triazol-4-yl)cyclohexyl]-3-(trifluoromethyl)-5-[2-(trifluoromethyl)imidazo[1,2-b]pyridazin-6-yl]benzenesulfonamide]
20 | 8.21 | Cc1nncn1[C@@H]1CCC[C@H](NS(=O)(=O)c2ccc(-c3ccc(OC(F)(F)F)cc3)cc2OC(F)(F)F)C1 [Compound 2Bbd, N-[(1S,3R)-3-(3-methyl-4H-1,2,4-triazol-4-yl)cyclohexyl]-3,4′-bis(trifluoromethoxy)biphenyl-4-sulfonamide]
21 | 7.60 | CCc1cc(-n2cc(C)cn2)ccc1S(=O)(=O)N[C@H]1CCC[C@@H](n2cnnc2)C1 [Compound 6b, 2-ethyl-4-(4-methyl-1H-pyrazol-1-yl)-N-[(1S,3R)-3-(4H-1,2,4-triazol-4-yl)cyclohexyl]benzenesulfonamide]

Row | SMILES | pIC50
22 | CCCCOc1ccc(S(=O)(=O)N[C@H]2CCC[C@@H](n3cnnc3C)C2)cc1F [Compound 2Fj, 4-butoxy-3-fluoro-N-[(1S,3R)-3-(3-methyl-4H-1,2,4-triazol-4-yl)cyclohexyl]benzenesulfonamide] | 8.72
23 | CCc1cc(OCCCC(F)(F)F)ccc1S(=O)(=O)N[C@H]1CCC[C@@H](n2cnnc2C)C1 [Compound 2Abj, 2-ethyl-N-[(1S,3R)-3-(3-methyl-4H-1,2,4-triazol-4-yl)cyclohexyl]-4-(4,4,4-trifluorobutoxy)benzenesulfonamide] | 8.57
24 | CCCCOc1ccc(S(=O)(=O)N[C@@H]2C[C@H](n3cnnc3C)CC(F)(F)C2)cc1F [Compound 2Hj, 4-butoxy-N-[(1R,5S)-3,3-difluoro-5-(3-methyl-4H-1,2,4-triazol-4-yl)cyclohexyl]-3-fluorobenzenesulfonamide] | 8.44

— US9029377B2, “Platelet-activating factor receptor antagonists” (Merck Sharp & Dohme Corp., priority 2009, dated 2015)
